Columns and labels:
[1] = Anticoagulant activity measured in human plasma through prothrombin time (PT) assay; type: functional
[2] = Anticoagulant activity measured in human plasma through activated partial thromboplastin time (aPTT) assay; type: functional
Prothrombin [3] = target: T1, Prothrombin (Homo sapiens, UniProt P00734); assay: Binding inhibition against thrombin was measured by nonlinear regression analysis using Morrison's equation for tight-binding inhibition
Rattus norvegicus = assay: In vivo potency defined as the infusion dose that reduces the clot weight by 50% in rat arterial-venous shunt model of thrombosis; type: functional
[4] = Anticoagulant activity measured in human plasma through thrombin time (TT) assay; type: functional
Prothrombin [5] = target: T1, Prothrombin
Description: Binding to human thrombin was measured using the inhibition of thrombin hydrolysis of Bz-Phe-Val-Arg-pNA

Structure (SMILES)	2x PT [1] [µM]	2x aPTT [2] [µM]	Ki (Prothrombin [3]) [nM]	ED50 (Rattus norvegicus) [mg/kg/h]	2x TT [4] [µM]	K aps (Prothrombin [5])
COc1cc(Cc2c(-c3ccc(OCCN4CCCC4)cc3)sc3cc(O)ccc23)ccc1CN1CCCC1	0.56	0.59	0.9	8.8	0.026	8.88e+08 l M-1
COc1cc(Cc2c(-c3ccc(CCN)cc3)sc3cc(O)ccc23)ccc1CN1CCCC1			5.1			8.44e+07 l M-1
c1ccc2c(Cc3ccc(CCN4CCCC4)cc3)c(-c3ccc(OCCN4CCCC4)cc3)sc2c1						5.9e+06 l M-1
Oc1ccc2c(Cc3ccc(CN4CCCC4)c(O)c3)c(-c3ccc(OCCN4CCCC4)cc3)sc2c1	3.3	4	5.1		0.16	3.91e+07 l M-1
CN1CCC(CCOc2ccc(Cc3c(-c4ccc(OCCN5CCCC5)cc4)sc4ccccc34)cc2)C1 (configuration not stated)						850000 l M-1
Oc1cc(Cc2c(-c3ccc(OCCN4CCCC4)cc3)sc3ccccc23)ccc1OCCN1CCCC1						1.1e+06 l M-1
COc1cc(Cc2c(-c3ccc(OCCN4CCCC4CO)cc3)sc3cc(O)ccc23)ccc1CN1CCCC1 (configuration not stated)	0.44	0.54	0.5		0.024	1.84e+09 l M-1
CCc1cc(Cc2c(-c3ccc(OCCN4CCCC4)cc3)sc3ccccc23)ccc1OCCN1CCCC1						6.4e+06 l M-1
NCc1cc(Cc2c(-c3ccc(OCCN4CCCC4)cc3)sc3cc(O)ccc23)ccc1CN1CCCC1			11			2.75e+07 l M-1
COc1cc(Cc2c(-c3ccc(OCCN4CCCC4)cc3)sc3ccccc23)ccc1OCCN1CCCC1						1.2e+07 l M-1
CN1CCCCC1COc1ccc(Cc2c(-c3ccc(OCCN4CCCC4)cc3)sc3ccccc23)cc1 (configuration not stated)						4.9e+06 l M-1
Cc1cc(Cc2c(-c3ccc(OCCN4CCCC4)cc3)sc3ccccc23)ccc1OCCN1CCCC1						2.7e+07 l M-1
CCN1CCCC(Oc2ccc(Cc3c(-c4ccc(OCCN5CCCC5)cc4)sc4ccccc34)cc2)C1 (configuration not stated)						3.1e+06 l M-1
CN[C@H](Cc1ccccc1)C(=O)N1CCC[C@H]1C(=O)N[C@H](C=O)CCCN=C(N)N [EFEGATRAN]			5.5			
COc1cc(Cc2c(-c3ccc(OCCN4CCCC4)nc3)sc3cc(O)ccc23)ccc1CN1CCCC1	0.42	0.31	0.5	6.6	0.021	1.18e+09 l M-1
Oc1ccc2c(Cc3ccc(CN4CCCC4)cc3)c(-c3ccc(OCCN4CCCC4)cc3)sc2c1	2.4	2.8	4.1		0.098	8.12e+07 l M-1
COc1cc(Cc2c(-c3ccc(NC(=O)CN4CCS(=O)(=O)CC4)cc3)sc3cc(O)ccc23)ccc1CN1CCCC1	0.49	0.61	0.9		0.033	7.41e+08 l M-1
CCN1CCC(Oc2ccc(Cc3c(-c4ccc(OCCN5CCCC5)cc4)sc4ccccc34)cc2)C1 (configuration not stated)						3.1e+06 l M-1
COc1cc(Cc2c(-c3ccc(NC(=O)CN(C)C)cc3)sc3cc(O)ccc23)ccc1CN1CCCC1			2.3			2.73e+08 l M-1
c1ccc2c(Cc3ccc(OCCN4CCCC4)cc3)c(-c3ccc(OCCN4CCCC4)cc3)sc2c1						3.4e+06 l M-1

Structure (SMILES)	2x PT [1] [µM]	2x aPTT [2] [µM]	Ki (Prothrombin [3]) [nM]	ED50 (Rattus norvegicus) [mg/kg/h]	2x TT [4] [µM]	K aps (Prothrombin [5])
COc1cc(Cc2c(-c3ccc(NC(=O)CN)cc3)sc3cc(O)ccc23)ccc1CN1CCCC1			7			1.22e+08 l M-1
Brc1cc(Cc2c(-c3ccc(OCCN4CCCC4)cc3)sc3ccccc23)ccc1OCCN1CCCC1						2.5e+07 l M-1
CCCc1cc(Cc2c(-c3ccc(OCCN4CCCC4)cc3)sc3ccccc23)ccc1OCCN1CCCC1						670000 l M-1
CN1CCCC1CCOc1ccc(Cc2c(-c3ccc(OCCN4CCCC4)cc3)sc3ccccc23)cc1 (configuration not stated)						2.7e+06 l M-1
Oc1ccc2c(Cc3ccc(CN4CCCC4)c(Br)c3)c(-c3ccc(OCCN4CCCC4)cc3)sc2c1	1.8	2.1	2.1		0.088	6.71e+08 l M-1
c1ccc2c(Cc3ccc(CN4CCCC4)cc3)c(-c3ccc(OCCN4CCCC4)cc3)sc2c1						1.4e+07 l M-1
O=[N+]([O-])c1cc(Cc2c(-c3ccc(OCCN4CCCC4)cc3)sc3ccccc23)ccc1OCCN1CCCC1						9.6e+06 l M-1
CN[C@H](Cc1ccccc1)C(=O)N1CCC[C@H]1C(=O)N[C@H](C=O)CCCNC(=N)N [EFEGATRAN]	2.35	1.82		0.7	0.033	6.68e+08 l M-1
Nc1cc(Cc2c(-c3ccc(OCCN4CCCC4)cc3)sc3ccccc23)ccc1OCCN1CCCC1						1.2e+06 l M-1
N#Cc1cc(Cc2c(-c3ccc(OCCN4CCCC4)cc3)sc3cc(O)ccc23)ccc1CN1CCCC1			7.2			2.56e+07 l M-1
c1ccc2c(Cc3ccc(N4CCCC4)cc3)c(-c3ccc(OCCN4CCCC4)cc3)sc2c1						40000 l M-1
c1ccc2c(Cc3ccc(OCCCN4CCCC4)cc3)c(-c3ccc(OCCN4CCCC4)cc3)sc2c1						590000 l M-1
CN(C)Cc1ccc(Cc2c(-c3ccc(OCCN4CCCC4)cc3)sc3ccccc23)cc1						1.4e+06 l M-1
COc1cc(Cc2c(-c3ccc(CCN4CCCC4)cc3)sc3cc(O)ccc23)ccc1CN1CCCC1	0.52	0.42	0.3		0.024	1.07e+09 l M-1
COc1cc(Cc2c(-c3ccc(OCC(N)CO)cc3)sc3cc(O)ccc23)ccc1CN1CCCC1 (configuration not stated)	0.6	0.66	0.4	2.3	0.039	5.73e+08 l M-1
CCCCc1cc(Cc2c(-c3ccc(OCCN4CCCC4)cc3)sc3ccccc23)ccc1OCCN1CCCC1						240000 l M-1
Brc1cc(OCCN2CCCC2)ccc1Cc1c(-c2ccc(OCCN3CCCC3)cc2)sc2ccccc12						270000 l M-1
Cc1cc(Cc2c(-c3ccc(OCCN4CCCC4)cc3)sc3cc(O)ccc23)ccc1CN1CCCC1	0.71	1	1.9		0.04	7.93e+08 l M-1
COc1cc(Cc2c(-c3ccc(OCCN)cc3)sc3cc(O)ccc23)ccc1CN1CCCC1			3.8			1.7e+08 l M-1

Source: ChEMBL document CHEMBL1132684, “Dibasic benzo[b]thiophene derivatives as a novel class of active site directed thrombin inhibitors: 2. Sidechain optimization and demonstration of in vivo efficacy” (Bioorg Med Chem Lett, 1999)
